“Also recorded” adds a separate entry of the source.
Columns and labels:
histone H3 = assay: Histone H3 acetylation in Kasumi-1 cells (Western blot); assay type: cell-based, human; conditions: Lys-CoA-Tat 50 μM, C646 10 or 20 μM for 24 hours
Text: (§1) Anti-p300 (Millipore or Santa Cruz), anti-Flag (Sigma), anti-HA (Santa Cruz), anti-ETO (generated in the Roeder lab or Santa Cruz), anti-AML1 (Zhao, X. et al, Genes Dev 22, 640, 2008), anti-acetylated lysine (Stressgen), anti-acetylated Histone H3 (Millipore), anti-Tubulin (Sigma), anti-TAFII250 (generated in the Roeder lab) and anti-TAF7 (generated in the Roeder lab) antibodies were used. Two anti-acetylated AML1-ETO polyclonal antibodies were generated by immunizing rabbits with the synthetic peptides (TALSPGK [acetylated] MSEA SEQ ID NO: 10 or LAGK [acetylated] LRSGDRS SEQ ID NO: 11) conjugated to KLH. The polyclonal antiserum was collected and purified using a peptide affinity column. The affinity of the antibodies against acetyl-lysine AML1-ETO was measured by dot blot assays. For the dot blot assays, 5 pmol of peptide (measured by Ellman's reagent) was spotted onto a nitrocellulose membrane. The control peptides were as follows: AML1-ETOK24 peptide (TALSPGKMSEA) (SEQ ID NO: 10) and AML1-ETOK43 peptide (LAGK LRSGDRS) (SEQ ID NO: 11).
(§2) The Flag-AE, Flag-AE-ΔNHR1 (aa245-436), Flag-AE-ΔNHR2, Flag-ETO, Flag-ETO-ΔNHR1 and Flag-ETO-ΔNHR2 cDNAs were cotransfected into 80% confluent 293T cells using the FuGene 6 reagent. After 36 hours the cells were lysed in RIPA buffer with 1 mM DTT and DNAse I 1 μg/mL and a proteinase inhibitor cocktail (Roche), and incubated on ice for 30 minutes. […]

HEL cells = assay: MTT growth assay of AML cell lines: HEL; assay type: cell-based; conditions: at 5 μM; MTT assay after 72 hours
Description: (§3) Cells were treated with p300 inhibitors at different concentrations in a 96-well plate. After 72 hours, 0.1 mg MTT was added to each well. The samples were incubated at 37° C. for 4 hours and the absorbance was measured at 570 nm by spectrophotometry.

MO-91 cells = assay: MTT growth assay of AML cell lines: MO-91; assay type: cell-based; conditions: at 5 μM; MTT assay after 72 hours
Description: as §3

[1] = system: MLL-AF9 expressing mouse leukemia cells; assay: MLL-AF9 mouse leukemia model, leukemia cells treated ex vivo and injected; assay type: in vivo; conditions: cells treated ex vivo 12 hours with 50 μM Lys-CoA-Tat/DDDD-Tat or 20 μM C646/C37; sublethally irradiated recipients
Description: (§4) Leukemia cells were obtained from two AML patients with t(8;21) by Ficoll-hypaque separation. Informed consent was obtained from the patients, according to institutional (IRB) guidelines. The cell viabilities of the primary leukemia cells, Kasumi-1 cells, HL60 cells and human CD34^+ cells were assessed by triplicate counting of trypan blue dye-excluding cells under light microscopy. The cell morphology was evaluated by Wright's staining of cells prepared by cytospin centrifugation. Blast cells were isolated from the bone marrow and spleen of the mice with AE9a or MLL-AF9 driven leukemia, and treated for 12 hours with Lys-CoA-Tat or DDDD-Tat (at 50 μM), or C646 vs. C37 (at 20 μM). Female C57Bl/6 mice were sublethally irradiated with 475 cGy, and then injected with 3×10^6 treated blast cells via tail vein.
(§5) Assays were set up in triplicates and the results expressed as the mean±SD. Statistical analyses were performed using Student's t-test. Survival functions were estimated using the Kaplan-Meier method and compared by the log-rank test.

[2] = system: AE9a expressing mouse leukemia cells; assay: AE9a mouse AML model, leukemia cells treated ex vivo and injected; assay type: in vivo
Description: as §4, §5

NB4 cells = assay: MTT growth assay of AML cell lines: NB4; assay type: cell-based; conditions: at 5 μM; MTT assay after 72 hours
Description: as §3

Id1, p21 and Egr1 mRNA = assay: qPCR of AML1-ETO activated target genes in Kasumi-1 cells; assay type: cell-based, human; conditions: 24 hours, Lys-CoA-Tat 50 μM, C646 20 μM
Description: The RNA extraction and cDNA generation procedures were described above. The reverse transcription reaction was performed for 10 min at 25° C., 50 min at 50° C., 5 min at 85° C. and 20 min at 37° C. Real-time quantitative PCR was performed using a TaqMan 7500 sequence detector system (Applied Biosystems). The thermal cycle conditions were:
50° C. for 2 min, 95° C. for 10 min to activate Amplitaq Gold DNA polymerase, denaturation at 95° C. for 15 seconds and anneal/extension at 60° C. for 1 min (45 cycles). Quantitative PCR for HPRT was performed to normalize for cDNA loading. The relative quantification of gene expression was calculated using the method […], as described by the manufacturer.

[3] = system: acetylated A-EK43 (AML1-ETO); assay: A-EK43 acetylation in Kasumi-1 cells (IP / Western blot); assay type: cell-based, human; conditions: Lys-CoA-Tat 50 μM, C646 10 or 20 μM for 24 hours
Text: as §1, §2

U937 cells = assay: MTT growth assay of AML cell lines: U937; assay type: cell-based; conditions: at 5 μM; MTT assay after 72 hours
Description: as §3

HL60 cells = assay: MTT growth assay of AML cell lines: HL60; assay type: cell-based; conditions: at 5 μM; MTT assay after 72 hours
Description: as §3

THP-1 cells = assay: MTT growth assay of AML cell lines: THP-1; assay type: cell-based; conditions: at 5 μM; MTT assay after 72 hours
Description: as §3

Mono-Mac-1 cells = assay: MTT growth assay of AML cell lines: Mono-Mac-1; assay type: cell-based; conditions: at 5 μM; MTT assay after 72 hours
Description: as §3

Kasumi-1 cells = assay: Growth of Kasumi-1 cells; assay type: cell-based, human; conditions: Lys-CoA-Tat and DDDD-Tat 50 μM; C646 concentration not stated
Description: as §4, §3

[4] = AE9a cells treated ex vivo 12 hours, 50 μM Lys-CoA-Tat vs DDDD-Tat or 20 μM C646 vs C37

For `CC1=NN(c2ccc(C(=O)O)cc2)C(=O)/C1=C\c1ccc(-c2cc(C)c(C)cc2[N+](=O)[O-])o1` [C646], the “level of acetylated histone H3” value (histone H3) was “decreased the level”, the “growth of HEL cells” value (HEL cells) was “inhibited the growth” and the “growth of MO-91 cells” value (MO-91 cells) was “inhibited the growth”. For the same molecule, the “Median survival of MLL-AF9 mice” value [1] was 28 days, the “Percent of GFP+ C-Kit+ cells in peripheral blood” value [2, 4] was “reduced the number; also recorded: significantly less” and the WBC counts [2, 4] was “lower white blood counts; also recorded: significantly lower”. The “platelet count (PLT)” value [2, 4] was “less thrombocytopenia; also recorded: higher”, the “red blood cell count (RBC)” value [2, 4] was “less anemia; also recorded: higher” and the “Median survival of AE9a mice” value ([2]; cells treated ex vivo 12 hours with 50 μM Lys-CoA-Tat/DDDD-Tat or 20 μM C646/C37, sublethally irradiated recipients) was 43 days. For the same molecule, the “growth of NB4 cells” value (NB4 cells) was “inhibited the growth”, the “expression of AML1-ETO activated target genes (Id1, p21 and Egr1 mRNA)” value (Id1, p21 and Egr1 mRNA) was “decreased the level; also recorded: downregulated expression” and the “level of acetylated A-EK43” value [3] was “decreased the level; also recorded: decreased acetylation”. The “growth of U937 cells” value (U937 cells) was “inhibited the growth”, the “growth of HL60 cells” value (HL60 cells) was “minimal effect” and the “growth of THP-1 cells” value (THP-1 cells) was “minimal effect”. For the same molecule, the “growth of Mono-Mac-1 cells” value (Mono-Mac-1 cells) was “minimal effect” and the “growth of Kasumi-1 cells” value (Kasumi-1 cells) was “as did C646”.

Reference: patent US9435809B2, “Method of treating and reducing the risk of acute myelogenous leukemia” (Memorial Sloan-Kettering Cancer Center, priority 2011, dated 2016)
